Measured values reported in patent US6242224A, “Maltohexaose and maltoheptaose-forming amylase, and its preparation and uses” (Kabushiki Kaisha Mayashibara Seibutsu Kagaku Kenkyujo, priority 1994, dated 2001).

Test system: AMYLASE
Assay: Inhibition or promotion of AMYLASE activity by ions and EDTA
Assay type: biochemical, Alcaligenes latus D2271
Details: for inhibition of enzyme activity: one mM metal ion
Method: The activity of the present AMYLASE is assayed as follows: 0.2 ml of an enzyme solution is added to 5 ml of 0.3 w/v % soluble starch in 20 mM phosphate buffer (pH 5.5) containing 1 mM CaCl2), and the mixture solution is incubated at 40° C. for 10 min, followed by sampling 0.5 ml of the resultant solution, and adding the solution to 15 ml of 0.02N sulfate solution to suspend the enzymatic reaction. The resultant is mixed with 0.2 ml of 0.1N iodine solution, stirred, allowed to stand at 25° C. for 15 min, and its absorbance at a wave length of 660 nm determined. One unit activity of the present AMYLASE is defined as the amount of enzyme which diminishes the iodine coloration of 15 mg soluble starch when reacted at 40° C. for 10 min.
Effects of temperature and pH on the enzyme activity were studied in the presence of calcium chloride in accordance with the assay as used for determining the enzyme activity. […] The thermal stability of the enzyme was determined by incubating it in 20 mM acetate buffer containing 5 mM calcium chloride (pH 6.0) at different temperatures for 60 min, cooling the buffers, and assaying the remaining enzyme activity in each buffer. The pH stability of the enzyme was determined by incubating it in 20 mM acetate buffer having different pHs at 40° C. for one hour, adjusting the buffer to pH 6.0, and assaying the remaining enzyme activity in each buffer.

| SMILES | inhibition of enzyme activity | promotion of activity and stabilization of AMYLASE (calcium ion) |
| --- | --- | --- |
| [Cu+2] [copper ion] | inhibited | – |
| [Zn+2] [zinc ion] | inhibited | – |
| [Pb+2] [lead ion] | inhibited | – |
| [Ca+2] [calcium ion] | – | promoted its activity and stabilized |
| [Hg+2] [mercury ion] | inhibited | – |
